Test results as given in patent US20240279214A1, “ALPHA4 BETA7 INEGRIN ANTAGONISTS AND USES THEREOF” (XinThera, Inc., priority 2022, published 2024).
pEC50: −log10 of the molar value.

Biological target: T1, a4b7 integrin interaction with MadCAM-1 (Homo sapiens, UniProt P13612+P26010)
T1 construct: capture of a4b7 integrin expressing cells, RPMI8866; endogenous in cells; host or cells: RPMI8866
T1 sequence (P13612 34-1032): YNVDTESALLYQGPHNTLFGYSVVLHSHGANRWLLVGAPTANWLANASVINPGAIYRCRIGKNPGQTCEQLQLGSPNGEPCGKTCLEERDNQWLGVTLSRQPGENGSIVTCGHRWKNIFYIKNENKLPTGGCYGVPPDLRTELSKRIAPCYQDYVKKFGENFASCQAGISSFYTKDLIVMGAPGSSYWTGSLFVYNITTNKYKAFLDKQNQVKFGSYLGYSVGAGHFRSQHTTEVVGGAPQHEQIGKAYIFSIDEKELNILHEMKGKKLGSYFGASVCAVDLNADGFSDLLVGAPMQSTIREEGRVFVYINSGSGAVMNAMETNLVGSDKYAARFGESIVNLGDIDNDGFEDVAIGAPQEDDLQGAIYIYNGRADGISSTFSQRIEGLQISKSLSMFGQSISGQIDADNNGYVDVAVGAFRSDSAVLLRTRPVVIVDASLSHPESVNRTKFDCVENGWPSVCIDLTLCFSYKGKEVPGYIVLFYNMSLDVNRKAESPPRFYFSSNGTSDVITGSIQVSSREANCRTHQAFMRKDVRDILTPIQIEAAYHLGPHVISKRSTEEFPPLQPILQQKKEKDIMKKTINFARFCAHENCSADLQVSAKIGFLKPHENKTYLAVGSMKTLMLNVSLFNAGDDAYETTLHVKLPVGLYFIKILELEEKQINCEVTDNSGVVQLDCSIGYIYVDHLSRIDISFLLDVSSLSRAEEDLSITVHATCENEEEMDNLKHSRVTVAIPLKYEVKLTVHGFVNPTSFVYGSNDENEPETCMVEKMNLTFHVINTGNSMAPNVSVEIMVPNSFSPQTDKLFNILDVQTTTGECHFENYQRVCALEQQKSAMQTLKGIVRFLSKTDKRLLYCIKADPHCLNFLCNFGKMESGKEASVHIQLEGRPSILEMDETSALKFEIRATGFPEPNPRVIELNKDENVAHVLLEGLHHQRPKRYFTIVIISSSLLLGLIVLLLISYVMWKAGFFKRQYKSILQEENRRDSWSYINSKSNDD
T1 sequence (P26010 20-798): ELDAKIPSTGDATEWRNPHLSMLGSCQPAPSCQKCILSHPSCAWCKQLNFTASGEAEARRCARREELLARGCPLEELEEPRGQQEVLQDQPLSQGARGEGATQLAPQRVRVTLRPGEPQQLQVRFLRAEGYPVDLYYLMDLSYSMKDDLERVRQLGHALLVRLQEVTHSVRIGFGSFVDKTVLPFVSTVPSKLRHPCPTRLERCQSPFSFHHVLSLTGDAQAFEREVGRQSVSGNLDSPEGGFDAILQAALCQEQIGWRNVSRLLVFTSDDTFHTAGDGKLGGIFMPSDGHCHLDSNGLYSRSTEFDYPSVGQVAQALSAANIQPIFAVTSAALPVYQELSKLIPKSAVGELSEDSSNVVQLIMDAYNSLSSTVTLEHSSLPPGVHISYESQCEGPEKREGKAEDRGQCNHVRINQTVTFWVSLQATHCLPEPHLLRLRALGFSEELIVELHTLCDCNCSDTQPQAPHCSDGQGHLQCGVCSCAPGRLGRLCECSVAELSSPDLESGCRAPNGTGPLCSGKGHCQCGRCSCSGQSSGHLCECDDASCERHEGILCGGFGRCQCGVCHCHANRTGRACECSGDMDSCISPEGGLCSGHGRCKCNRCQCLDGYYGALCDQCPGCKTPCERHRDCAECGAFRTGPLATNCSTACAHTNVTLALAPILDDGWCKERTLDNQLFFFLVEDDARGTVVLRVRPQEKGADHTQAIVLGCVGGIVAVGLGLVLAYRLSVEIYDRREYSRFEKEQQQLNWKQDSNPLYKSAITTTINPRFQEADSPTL
Assay: a4b7 Cell Capture Assay (RPMI8866 cells on MAdCAM-1 Fc coated plates)
Type: cell-based
Settings: 50% human serum, 1 mM MgCl2, 1 hour incubation, CellTiter-Glo luminescence, read-out: a4B7 cell capture assay RMPI8866-MadCAM EC50
Summary of the method: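 RPMI8866 cells (1.0×10^6 cells/mL) in 1 mM MgCl2, 25 mM HEPES, 50% human serum were added to plates coated with human MAdCAM-1–IgG1 Fc (1.0 μg/mL) and exposed to compound (9-point, 0.08–1000 nM, 0.1% DMSO) for 1 h at 37 °C. Bound cells were read by CellTiter-Glo luminescence. IC50 came from 4-parameter fit of normalized % inhibition.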

pEC50	SMILES
8.11	Cc1cccc2c1-c1cc(c(F)c(C(F)(F)F)c1)[C@H](CC(=O)O)NC(=O)[C@@H](n1cc(CCN3CC(F)C3)c(C(F)(F)F)cc1=O)c1cc(ccc1F)CO2 (relative stereo) [Example 35, [(15R*,18S)-13,20-difluoro-15-{5-[2-(3-fluoroazetidin-1-yl)ethyl]-2-oxo-4-(trifluoromethyl)pyridin-1-yl}-3-methyl-16-oxo-21-(trifluoromethyl)-8-oxa-17-azatetracyclo[17.3.1.1^{10,14}.0^{2,7}]tetracosa-1(23),2(7),3,5,10,12,14(24),19,21-nonaen-18-yl]acetic acid]
8.28	Cc1cc2cc(c1F)[C@H](CC(=O)O)NC(=O)[C@@H](n1cc(CCN3CC(F)C3)c(C(F)(F)F)cc1=O)c1cc(ccc1F)COc1cccc(C)c1-2 (relative stereo) [Example 36, [(15R*,18S)-13,20-difluoro-15-{5-[2-(3-fluoroazetidin-1-yl)ethyl]-2-oxo-4-(trifluoromethyl)pyridin-1-yl}-3,21-dimethyl-16-oxo-8-oxa-17-azatetracyclo[17.3.1.1^{10,14}.0^{2,7}]tetracosa-1(23),2(7),3,5,10,12,14(24),19,21-nonaen-18-yl]acetic acid]
8.89	Cc1cccc2c1-c1cc(C(F)F)c(F)c(c1)[C@H](CC(=O)O)NC(=O)[C@@H](n1cc(CCN3CC(F)C3)c(C(F)(F)F)cc1=O)c1cc(ccc1F)O2 (relative stereo) [Example 37, [(14R*,17S)-20-(difluoromethyl)-12,19-difluoro-14-{5-[2-(3-fluoroazetidin-1-yl)ethyl]-2-oxo-4-(trifluoromethyl)pyridin-1-yl}-3-methyl-15-oxo-8-oxa-16-azatetracyclo[16.3.1.1^{9,13}.0^{2,7}]tricosa-1(22),2(7),3,5,9,11,13(23),18,20-nonaen-17-yl]acetic acid]
7.38	Cc1cc2cc(c1F)[C@H](CC(=O)O)NC(=O)[C@@H](n1cc(CCN3CC(F)C3)c(C(F)(F)F)cc1=O)c1cc(ccc1F)Oc1nn(C)c(C)c1-2 (relative stereo) [Example 40, rel-[(13S,16S)-11,18-difluoro-13-{5-[2-(3-fluoroazetidin-1-yl)ethyl]-2-oxo-4-(trifluoromethyl)pyridin-1-yl}-3,4,19-trimethyl-14-oxo-7-oxa-4,5,15-triazatetracyclo[15.3.1.1^{8,12}.0^{2,6}]docosa-1(21),2,5,8,10,12(22),17,19-octaen-16-yl]acetic acid]
6.00	Cc1ccc2c(c1C)-c1cc(C)c(F)c(c1)[C@H](CC(=O)O)NC(=O)[C@@H](n1cc(CCN3CC(F)C3)c(C(F)(F)F)cc1=O)c1cc(ccc1F)CO2 (relative stereo) [Example 51, [(15R*,18S)-13,20-difluoro-15-{5-[2-(3-fluoroazetidin-1-yl)ethyl]-2-oxo-4-(trifluoromethyl)pyridin-1-yl}-3,4,21-trimethyl-16-oxo-8-oxa-17-azatetracyclo[17.3.1.1^{10,14}.0^{2,7}]tetracosa-1(23),2(7),3,5,10,12,14(24),19,21-nonaen-18-yl]acetic acid]
8.40	Cc1cc2cc(c1F)[C@H](CC(=O)O)NC(=O)[C@@H](n1cc(CCN3CC(F)C3)c(C(F)(F)F)cc1=O)c1cc(ccc1F)Oc1cc(Cl)cc(C)c1-2 (relative stereo) [Example 55, [(14R*,17S)-5-chloro-12,19-difluoro-14-{5-[2-(3-fluoroazetidin-1-yl)ethyl]-2-oxo-4-(trifluoromethyl)pyridin-1-yl}-3,20-dimethyl-15-oxo-8-oxa-16-azatetracyclo[16.3.1.1^{9,13}.0^{2,7}]tricosa-1(22),2(7),3,5,9,11,13(23),18,20-nonaen-17-yl]acetic acid]
9.01	Cc1cc2cc(c1F)[C@H](CC(=O)O)NC(=O)[C@@H](n1cc(CCN3CC(F)C3)c(C(F)(F)F)cc1=O)c1cc(ccc1F)Oc1cc(N3C4CCC3COC4)cc(C)c1-2 (relative stereo) [Example 56, [(14R*,17S)-12,19-difluoro-14-{5-[2-(3-fluoroazetidin-1-yl)ethyl]-2-oxo-4-(trifluoromethyl)pyridin-1-yl}-3,20-dimethyl-5-{3-oxa-8-azabicyclo[3.2.1]octan-8-yl}-15-oxo-8-oxa-16-azatetracyclo[16.3.1.1^{9,13}.0^{2,7}]tricosa-1(22),2(7),3,5,9,11,13(23),18,20-nonaen-17-yl]acetic acid]
8.92	Cc1cc2cc(c1F)[C@H](CC(=O)O)NC(=O)[C@@H](n1cc(CCN3CC(F)C3)c(C(F)(F)F)cc1=O)c1cc(ccc1Cl)Oc1cccc(C)c1-2 (relative stereo) [Example 59, [(14R*,17S)-12-chloro-19-fluoro-14-{5-[2-(3-fluoroazetidin-1-yl)ethyl]-2-oxo-4-(trifluoromethyl)pyridin-1-yl}-3,20-dimethyl-15-oxo-8-oxa-16-azatetracyclo[16.3.1.1^{9,13}.0^{2,7}]tricosa-1(22),2(7),3,5,9,11,13(23),18,20-nonaen-17-yl]acetic acid]
7.11	Cc1cc2cc(c1F)[C@H](CC(=O)O)NC(=O)[C@@H](n1cc(CCN3CC(F)C3)c(C(F)(F)F)cc1=O)c1cc(ccc1F)COc1cc(C(F)(F)F)cc(C)c1-2 (relative stereo) [Example 65, [(15R*,18S)-13,20-difluoro-15-{5-[2-(3-fluoroazetidin-1-yl)ethyl]-2-oxo-4-(trifluoromethyl)pyridin-1-yl}-3,21-dimethyl-16-oxo-5-(trifluoromethyl)-8-oxa-17-azatetracyclo[17.3.1.1^{10,14}.0^{2,7}]tetracosa-1(23),2(7),3,5,10,12,14(24),19,21-nonaen-18-yl]acetic acid]
< 7.00	Cc1cc2cc(c1F)[C@H](CC(=O)O)NC(=O)[C@@H](n1ccc(C(F)(F)F)c(Cl)c1=O)c1cc(ccc1F)COc1cccc(C)c1-2 (relative stereo) [Example 79, [(15R*,18S)-15-[3-chloro-2-oxo-4-(trifluoromethyl)pyridin-1-yl]-13,20-difluoro-3,21-dimethyl-16-oxo-8-oxa-17-azatetracyclo[17.3.1.1^{10,14}.0^{2,7}]tetracosa-1(23),2(7),3,5,10,12,14(24),19,21-nonaen-18-yl]acetic acid]
10.10	Cc1cc2cc(c1F)[C@H](CC(=O)O)NC(=O)[C@@H](n1cc(CCCN3CCC3)c(C(F)(F)F)cc1=O)c1cc(ccc1F)Oc1cccc(C)c1-2 (single isomer, unassigned) [Example 21]
7.68	COC1CN(c2cc(C)c3c(c2)Oc2ccc(F)c(c2)[C@H](n2cc(CCN4CC(F)C4)c(C(F)(F)F)cc2=O)C(=O)N[C@@H](CC(=O)O)c2cc-3cc(C)c2F)C1 (single isomer, unassigned) [Example 41]
7.89	Cc1cc2cc(c1F)[C@H](CC(=O)O)NC(=O)[C@@H](n1ccc(C(F)(F)F)cc1=O)c1cc(ccc1F)Oc1cccc(C)c1-2 (single isomer, unassigned) [Example 42]
6.32	Cc1cc2cc(c1F)[C@H](CC(=O)O)NC(=O)[C@@H](n1cc(CCN3CC(F)C3)c(C(F)(F)F)cc1=O)c1cc(ccc1F)Oc1nn(C)cc1-2 (single isomer, unassigned) [Example 43]
